Data as given in patent publication US7432276B2, “ABCA1 elevating compounds” (CV Therapeutics, Inc., priority 2005, dated 2008).

Test system: ABCA1 mRNA
Assay: ABCA1 mRNA induction in THP-1 cells, QuantiGene branched DNA assay
Assay type: cell-based
Settings: 10 μM test compound, 18-20 hours; for fold induction at 10 µM: Homo sapiens, read-out: ABCA1 Induction Fold Increase over DMSO Vehicle
Protocol: Modulation of expression of ABCA1 mRNA levels by the compounds of the invention was determined in the following assays.
Induction of ABC1 in THP-1 cells, was measured using QuantiGene® branched DNA assay as per manufacturer's instructions. Cultures of THP-1 were grown to subconfluence in DMEM/10% FBS before replacement with DMEM/BSA and 10 and 3 μM concentrations of the test compounds in DMSO for 18-20 hours. After treatment of cells with compounds, the cells were lysed with lysis buffer at 37° C. for 20 minutes. The cell lysate and ABCA1 specific probe (Genospectra, Inc., Fremont, Calif.) mix were added to the 96 well capture plate and hybridized at 53° C. for 16-18 hours. The signal was amplified using the amplifier and label probes provided with the QuantiGene® assay followed by addition of a luminescent alkaline phosphatase substrate, dioxitane. Luminescence was quantified in Victor V plate reader.
Step 1 • Cells are lysed to release mRNA in the presence of target probes. Target mRNA from lysed cells was then captured by hybridization and transferred to the Capture Plate.
Step 2 • Signal amplification was performed by hybridization of the bDNA Amplifier and Label Probe.
Step 3 • Addition of chemiluminescence substrate yielded a QuantiGene® signal proportional to the amount of mRNA present in the sample.
Table 1 presents the relative fold increase in ABCA1 expression over DMSO for various compounds of the invention when tested at a concentration of […].

Row | Structure (SMILES) | ABCA1 Induction Fold Increase over DMSO Vehicle [FOLD INCREASE] | fold induction at 10 µM
1 | COc1cccc2c1OCC1C2Nc2ccc(CC(=O)O)cc2C1(C)C (stereo not shown) [Number 26, 2-(4-methoxy-7,7-dimethyl-7,12,12a,6a-tetrahydrochromano[4,3-b]quinolin-9-yl)acetic acid] | 5.0 | –
2 | COc1cccc2c1OC[C@@H]1[C@H]2Nc2ccc(CCC(=O)O)cc2C1(C)C [Number 27, 3-((6aS,12aR)-4-methoxy-7,7-dimethyl-7,12,12a,6a-tetrahydrochromano[4,3-b]quinolin-9-yl)propanoic acid] | 3.3 | –
3 | COc1cccc2c1OC[C@H]1[C@H]2Nc2ccc(CCC(=O)O)cc2C1(C)C [Number 28, 3-((12aR,6aR)-4-methoxy-7,7-dimethyl-7,12,12a,6a-tetrahydrochromano[4,3-b]quinolin-9-yl)propanoic acid] | 1.9 | –
4 | Cc1cccc2c1OCC1C2Nc2ccc(C(N)=O)cc2C1(C)C (stereo not shown) [Number 29, 4,7,7-trimethyl-7,12,12a,6a-tetrahydrochromano[4,3-b]quinoline-9-carboxamide] | 5.8 | –
5 | CCOc1cccc2c1OCC1C2Nc2ccc(C(N)=O)cc2C1(C)C (stereo not shown) [Number 30, 4-ethoxy-7,7-dimethyl-7,12,12a,6a-tetrahydrochromano[4,3-b]quinoline-9-carboxamide] | 5.3 | –
6 | Cc1cccc2c1OCC1C2Nc2ccccc2C1(C)C (stereo not shown) [Number 31, 4,7,7-trimethyl-7,12,12a,6a-tetrahydrochromano[4,3-b]quinoline] | 5.5 | –
7 | Cc1cccc2c1OCC1[C@@H]2Nc2ccccc2C1(C)C (stereo partly drawn) [Number 32, (12aS)-4,7,7-trimethyl-7,12,12a,6a-tetrahydrochromano[4,3-b]quinoline] | 4.9 | –
8 | COc1cccc2c1OCC1C2Nc2ccc(C(O)(C(F)(F)F)C(F)(F)F)cc2C1(C)C (stereo not shown) [Number 33, 1,1,1,3,3,3-hexafluoro-2-(4-methoxy-7,7-dimethyl(7,12,12a,6a-tetrahydrochromano[4,3-b]quinolin-9-yl))propan-2-ol] | 6.4 | –
9 | COc1cccc2c1OC[C@H]1C2Nc2ccc(C(O)(C(F)(F)F)C(F)(F)F)cc2C1(C)C (stereo partly drawn) [Number 34, 2-((6aR)-4-methoxy-7,7-dimethyl(7,12,12a,6a-tetrahydrochromano[4,3-b]quinolin-9-yl))-1,1,1,3,3,3-hexafluoropropan-2-ol] | 4.5 | –
10 | COC(=O)/C=C/c1ccc2c(c1)C1Nc3ccc(C(O)(C(F)(F)F)C(F)(F)F)cc3C(C)(C)C1CO2 (stereo not shown) [Number 35, methyl (2E)-3-{7,7-dimethyl-9-[2,2,2-trifluoro-1-hydroxy-1-(trifluoromethyl)ethyl](7,12,12a,6a-tetrahydrochromano[4,3-b]quinolin-2-yl)}prop-2-enoate] | 4.3 | –
11 | CN(C)C(=O)/C=C/c1ccc2c(c1)C1Nc3ccc(C(O)(C(F)(F)F)C(F)(F)F)cc3C(C)(C)C1CO2 (stereo not shown) [Number 36, (2E)-3-{7,7-dimethyl-9-[2,2,2-trifluoro-1-hydroxy-1-(trifluoromethyl)ethyl](7,12,12a,6a-tetrahydrochromano[4,3-b]quinolin-2-yl)}-N,N-dimethylprop-2-enamide] | – | 5.3
12 | COc1cccc2c1OC[C@@H]1[C@H]2Nc2ccccc2C1(C)C [Number 37, (6aS,12aR)-4-methoxy-7,7-dimethyl-7,12,12a,6a-tetrahydrochromano[4,3-b]quinoline] | 8.3 | –
13 | COc1cccc2c1OC[C@@H]1[C@@H]2Nc2ccccc2C1(C)C [Number 38, (12aS,6aS)-4-methoxy-7,7-dimethyl-7,12,12a,6a-tetrahydrochromano[4,3-b]quinoline] | 7.0 | –
14 | CN(C)C(=O)CCc1ccc2c(c1)C1Nc3ccc(C(O)(C(F)(F)F)C(F)(F)F)cc3C(C)(C)C1CO2 (stereo not shown) [Number 39, 3-{7,7-dimethyl-9-[2,2,2-trifluoro-1-hydroxy-1-(trifluoromethyl)ethyl](7,12,12a,6a-tetrahydrochromano[4,3-b]quinolin-2-yl)}-N,N-dimethylpropanamide] | – | 3.4
15 | COC(=O)CCc1ccc2c(c1)C1Nc3ccc(C(O)(C(F)(F)F)C(F)(F)F)cc3C(C)(C)C1CO2 (stereo not shown) [Number 40, methyl 3-{7,7-dimethyl-9-[2,2,2-trifluoro-1-hydroxy-1-(trifluoromethyl)ethyl]-7,12,12a,6a-tetrahydrochromano[4,3-b]quinolin-2-yl}propanoate] | 2.1 | –
16 | CCOc1cccc2c1OCC1C2Nc2ccc(C(F)(F)F)cc2C1(C)C (stereo not shown) [Number 41, 4-ethoxy-7,7-dimethyl-9-(trifluoromethyl)-7,12,12a,6a-tetrahydrochromano[4,3-b]quinoline] | 2.1 | –

Row | Structure (SMILES) | ABCA1 Induction Fold Increase over DMSO Vehicle [FOLD INCREASE] | fold induction at 10 µM
17 | CCOc1cccc2c1OCC1C2Nc2ccc(C(C)=O)cc2C1(C)C (stereo not shown) [Number 42, 1-(4-ethoxy-7,7-dimethyl-7,12,12a,6a-tetrahydrochromano[4,3-b]quinolin-9-yl)ethan-1-one] | 3.8 | –
18 | COc1cccc2c1C1Nc3ccc(C(C)=O)cc3C(C)(C)C1CO2 (stereo not shown) [Number 43, 1-(1-methoxy-7,7-dimethyl-7,12,12a,6a-tetrahydrochromano[4,3-b]quinolin-9-yl)ethan-1-one] | 4.1 | –
19 | COc1cccc2c1C1Nc3ccc(C(F)(F)F)cc3C(C)(C)C1CO2 (stereo not shown) [Number 44, 1-methoxy-7,7-dimethyl-9-(trifluoromethyl)-7,12,12a,6a-tetrahydrochromano[4,3-b]quinoline] | 2.2 | –
20 | COc1cccc2c1C1Nc3ccc(C(N)=O)cc3C(C)(C)C1CO2 (stereo not shown) [Number 45, 1-methoxy-7,7-dimethyl-7,12,12a,6a-tetrahydrochromano[4,3-b]quinoline-9-carboxamide] | 4.9 | –
21 | COc1cccc2c1OC[C@@H]1[C@H]2Nc2ccc(C(C)C)cc2C1(C)C [Number 46, (6aS,12aR)-4-methoxy-7,7-dimethyl-9-(methylethyl)-7,12,12a,6a-tetrahydrochromano[4,3-b]quinoline] | 4.2 | –
22 | COc1cccc2c1OC[C@@H]1[C@@H]2Nc2ccc(C(C)C)cc2C1(C)C [Number 47, (12aS,6aS)-4-methoxy-7,7-dimethyl-9-(methylethyl)-7,12,12a,6a-tetrahydrochromano[4,3-b]quinoline] | 3.6 | –
23 | COc1cccc2c1OC[C@@H]1[C@H]2Nc2ccc(F)cc2C1(C)C [Number 48, (6aS,12aR)-9-fluoro-4-methoxy-7,7-dimethyl-7,12,12a,6a-tetrahydrochromano[4,3-b]quinoline] | 3.7 | –
24 | COc1cccc2c1OC[C@@H]1[C@@H]2Nc2ccc(C(=O)O)cc2C1(C)C [Number 49, (12aS,6aS)-4-methoxy-7,7-dimethyl-7,12,12a,6a-tetrahydrochromano[4,3-b]quinoline-9-carboxylic acid] | 1.7 | –
25 | CC1(C)c2cc(C(N)=O)ccc2NC2c3cccc(F)c3OCC21 (stereo not shown) [Number 50, 4-fluoro-7,7-dimethyl-7,12,12a,6a-tetrahydrochromano[4,3-b]quinoline-9-carboxamide] | 5.0 | –
26 | CC1(C)c2cc(C(O)(C(F)(F)F)C(F)(F)F)ccc2NC2c3cccc(F)c3OCC21 (stereo not shown) [Number 51, 1,1,1,3,3,3-hexafluoro-2-(4-fluoro-7,7-dimethyl(7,12,12a,6a-tetrahydrochromano[4,3-b]quinolin-9-yl))propan-2-ol] | 7.8 | –
27 | COc1cccc2c1OC[C@@H]1[C@H]2Nc2ccc(OC(F)(F)F)cc2C1(C)C [Number 52, ((6aS,12aR)-4-methoxy-7,7-dimethyl(7,12,12a,6a-tetrahydrochromano[4,3-b]quinolin-9-yloxy))trifluoromethane] | 9.5 | –
28 | COc1cccc2c1[C@H]1Nc3ccccc3C(C)(C)[C@H]1CO2 [Number 53, (12aS,6aR)-1-methoxy-7,7-dimethyl-7,12,12a,6a-tetrahydrochromano[4,3-b]quinoline] | 3.5 | –
29 | COc1cccc2c1[C@H]1Nc3ccc(C(C)C)cc3C(C)(C)[C@H]1CO2 [Number 54, (12aS,6aR)-1-methoxy-7,7-dimethyl-9-(methylethyl)-7,12,12a,6a-tetrahydrochromano[4,3-b]quinoline] | 4.3 | –
30 | COc1cccc2c1[C@H]1Nc3ccc(F)cc3C(C)(C)[C@H]1CO2 [Number 55, (12aS,6aR)-9-fluoro-1-methoxy-7,7-dimethyl-7,12,12a,6a-tetrahydrochromano[4,3-b]quinoline] | 2.5 | –
31 | CCOc1ccc2c(c1)C(C)(C)[C@H]1COc3cccc(OC)c3[C@H]1N2 [Number 56, (12aS,6aR)-9-ethoxy-1-methoxy-7,7-dimethyl-7,12,12a,6a-tetrahydrochromano[4,3-b]quinoline] | 4.8 | –
